Data as given in paper PMC6469989 (ACS chemical biology, 2018).

Assays:
Format in all cases: cell-based
[1] = system: mutant ERα (Y537S, D538G, L536R); assay: Inhibition of mutant ERα-mediated transcription; settings: MCF-7 cells, 100 nM, 24 hours
[2] = system: MCF-7 cells expressing doxycycline-inducible Y537S mutant ERα; assay: cells; settings: Homo sapiens, MCF7, 120 h, read-out: Inhibition of Proliferation IC50 (nM ± SD)
[3] = system: MCF-7 cells expressing doxycycline-inducible L536R mutant ERα; assay: Inhibition of MCF-7 cell proliferation driven by L536R mutant ERα; settings: Homo sapiens, MCF7, 120 h, read-out: Inhibition of Proliferation IC50 (nM ± SD)
[4] = system: MCF-7 cells expressing doxycycline-inducible WT ERα; assay: Inhibition of MCF-7 cell proliferation driven by WT ERα; settings: Homo sapiens, MCF7, 120 h, read-out: Inhibition of Proliferation IC50 (nM ± SD)
[5] = system: MCF-7 cells expressing doxycycline-inducible D538G mutant ERα; assay: Inhibition of MCF-7 cell proliferation driven by D538G mutant ERα; settings: Homo sapiens, MCF7, 120 h, read-out: Inhibition of Proliferation IC50 (nM ± SD)

Row | SMILES | inhibition of mutant ER transcriptional activity (in words) [1] | IC50 [2] | IC50 [3] | IC50 [4] | IC50 [5]
1 | C[C@]12C[C@H](c3ccc(OCCCCCS(=O)(=O)CCCC(F)(F)C(F)(F)F)cc3)[C@@H]3c4ccc(O)cc4CC[C@H]3[C@@H]1CC[C@@H]2O [RU58668] | block much of the activity of all three mutants |  |  |  | 
2 | C[C@]12CC[C@@H]3c4ccc(O)cc4C[C@@H](CCCCCCCCC[S+]([O-])CCCC(F)(F)C(F)(F)F)[C@H]3[C@@H]1CC[C@@H]2O (some centres unmarked) [fulvestrant] |  | 16 ± 1.8 nM | 2.6 ± 0.4 nM | 0.31 ± 0.03 nM | 5.9 ± 0.6 nM
